Experimental data as given in publication PMC3961306, “Comparison of the Cancer Gene Targeting and Biochemical Selectivities of All Targeted Kinase Inhibitors Approved for Clinical Use” (PLoS ONE, 2014).

How the values were obtained:
Assay in all cases: Kinase profiling in a biochemical assay panel (mobility shift assays and ELISA), %-inhibition at 1 μM; selectivity entropy
[1] = target: panel of more than 300 wild-type and mutant kinases (313 kinase panel) (Homo sapiens, UniProt Q9BUB5)
[2] = target: panel of more than 300 wild-type and mutant kinases (313 kinase panel) (Homo sapiens, UniProt P78362)
[3] = target: panel of more than 300 wild-type and mutant kinases (313 kinase panel) (Homo sapiens, UniProt P11362)
[4] = target: panel of more than 300 wild-type and mutant kinases (313 kinase panel) (Homo sapiens, UniProt P27448)
[5] = target: panel of more than 300 wild-type and mutant kinases (313 kinase panel) (Homo sapiens, UniProt Q9Y6R4)
[6] = target: panel of more than 300 wild-type and mutant kinases (313 kinase panel) (Homo sapiens, UniProt P12931)
[7] = target: panel of more than 300 wild-type and mutant kinases (313 kinase panel) (Homo sapiens, UniProt Q9P0L2)
[8] = target: panel of more than 300 wild-type and mutant kinases (313 kinase panel) (Homo sapiens, UniProt Q9UQM7)
[9] = target: panel of more than 300 wild-type and mutant kinases (313 kinase panel) (Homo sapiens, UniProt Q9UPE1)
[10] = target: panel of more than 300 wild-type and mutant kinases (313 kinase panel) (Homo sapiens, UniProt Q16539)
[11] = target: panel of more than 300 wild-type and mutant kinases (313 kinase panel) (Homo sapiens, UniProt Q8IU85)
[12] = target: T1, panel of more than 300 wild-type and mutant kinases (313 kinase panel) (Homo sapiens, UniProt Q8IWQ3)
T1 sequence (Q8IWQ3 1-736): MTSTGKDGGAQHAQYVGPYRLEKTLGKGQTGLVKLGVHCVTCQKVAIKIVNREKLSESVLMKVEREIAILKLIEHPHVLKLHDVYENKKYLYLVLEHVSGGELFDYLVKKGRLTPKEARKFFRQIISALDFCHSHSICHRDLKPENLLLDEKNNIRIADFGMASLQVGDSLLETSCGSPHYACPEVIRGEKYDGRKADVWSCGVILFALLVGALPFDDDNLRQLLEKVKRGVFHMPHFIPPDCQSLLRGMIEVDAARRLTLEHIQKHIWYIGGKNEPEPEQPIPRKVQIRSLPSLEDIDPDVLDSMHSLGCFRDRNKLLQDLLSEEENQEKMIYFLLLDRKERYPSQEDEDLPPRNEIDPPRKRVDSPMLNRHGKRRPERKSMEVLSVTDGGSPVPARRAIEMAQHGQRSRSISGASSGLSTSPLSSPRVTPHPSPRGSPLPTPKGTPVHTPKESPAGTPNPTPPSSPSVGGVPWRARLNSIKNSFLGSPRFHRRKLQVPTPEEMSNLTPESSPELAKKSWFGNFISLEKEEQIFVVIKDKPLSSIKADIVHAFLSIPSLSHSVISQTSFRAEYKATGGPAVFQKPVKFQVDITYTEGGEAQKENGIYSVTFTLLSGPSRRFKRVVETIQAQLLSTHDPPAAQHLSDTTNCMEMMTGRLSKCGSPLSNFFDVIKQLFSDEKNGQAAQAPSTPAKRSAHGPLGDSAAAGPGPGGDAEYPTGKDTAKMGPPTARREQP

[13] = kinase MAP3K4, compound at 1 μM

Sequence of panel of more than 300 wild-type and mutant kinases (313 kinase panel) (Homo sapiens, UniProt Q9Y6R4) (Q9Y6R4 whole entry, change not shown): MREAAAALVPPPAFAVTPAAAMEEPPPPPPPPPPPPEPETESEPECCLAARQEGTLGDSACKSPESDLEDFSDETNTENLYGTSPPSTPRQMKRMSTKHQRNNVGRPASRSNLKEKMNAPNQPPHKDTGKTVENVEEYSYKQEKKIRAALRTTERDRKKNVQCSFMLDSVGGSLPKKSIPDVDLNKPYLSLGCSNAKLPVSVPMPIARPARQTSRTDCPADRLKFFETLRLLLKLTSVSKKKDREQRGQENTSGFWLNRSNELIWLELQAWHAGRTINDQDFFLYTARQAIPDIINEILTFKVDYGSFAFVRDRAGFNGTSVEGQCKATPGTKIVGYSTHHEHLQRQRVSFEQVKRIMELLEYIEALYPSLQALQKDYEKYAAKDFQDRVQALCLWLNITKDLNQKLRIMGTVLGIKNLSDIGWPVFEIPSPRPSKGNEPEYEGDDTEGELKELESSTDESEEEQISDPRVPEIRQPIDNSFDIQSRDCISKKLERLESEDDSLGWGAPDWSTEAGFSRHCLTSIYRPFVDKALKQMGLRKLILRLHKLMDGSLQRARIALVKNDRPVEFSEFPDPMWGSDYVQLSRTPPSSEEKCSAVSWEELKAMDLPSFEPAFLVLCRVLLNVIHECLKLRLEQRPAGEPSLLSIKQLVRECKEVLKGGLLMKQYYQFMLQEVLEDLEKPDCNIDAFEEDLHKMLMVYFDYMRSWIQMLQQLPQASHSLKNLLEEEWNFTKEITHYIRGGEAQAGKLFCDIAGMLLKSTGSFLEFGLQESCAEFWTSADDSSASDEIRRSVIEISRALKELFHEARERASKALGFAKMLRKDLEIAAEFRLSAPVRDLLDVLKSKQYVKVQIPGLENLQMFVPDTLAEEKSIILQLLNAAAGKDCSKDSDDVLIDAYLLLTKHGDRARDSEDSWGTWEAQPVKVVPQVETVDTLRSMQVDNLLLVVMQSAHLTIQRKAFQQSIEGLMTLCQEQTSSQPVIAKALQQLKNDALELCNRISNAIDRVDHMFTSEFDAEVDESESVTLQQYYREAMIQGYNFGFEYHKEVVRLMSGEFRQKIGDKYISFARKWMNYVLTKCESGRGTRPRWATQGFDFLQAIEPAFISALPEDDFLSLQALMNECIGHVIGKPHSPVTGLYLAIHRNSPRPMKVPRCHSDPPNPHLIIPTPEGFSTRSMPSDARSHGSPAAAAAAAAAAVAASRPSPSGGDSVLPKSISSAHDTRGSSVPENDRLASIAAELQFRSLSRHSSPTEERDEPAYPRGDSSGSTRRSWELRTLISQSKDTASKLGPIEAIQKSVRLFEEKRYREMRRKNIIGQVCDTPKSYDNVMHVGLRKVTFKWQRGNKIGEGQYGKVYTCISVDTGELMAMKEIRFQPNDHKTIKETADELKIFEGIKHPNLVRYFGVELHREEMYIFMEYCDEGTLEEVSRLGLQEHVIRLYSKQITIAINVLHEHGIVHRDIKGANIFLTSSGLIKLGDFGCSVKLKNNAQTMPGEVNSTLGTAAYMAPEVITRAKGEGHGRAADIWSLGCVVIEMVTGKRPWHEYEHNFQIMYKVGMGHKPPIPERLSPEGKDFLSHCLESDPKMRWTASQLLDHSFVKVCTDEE
Sequence of panel of more than 300 wild-type and mutant kinases (313 kinase panel) (Homo sapiens, UniProt P11362) (P11362 22-822, change not shown): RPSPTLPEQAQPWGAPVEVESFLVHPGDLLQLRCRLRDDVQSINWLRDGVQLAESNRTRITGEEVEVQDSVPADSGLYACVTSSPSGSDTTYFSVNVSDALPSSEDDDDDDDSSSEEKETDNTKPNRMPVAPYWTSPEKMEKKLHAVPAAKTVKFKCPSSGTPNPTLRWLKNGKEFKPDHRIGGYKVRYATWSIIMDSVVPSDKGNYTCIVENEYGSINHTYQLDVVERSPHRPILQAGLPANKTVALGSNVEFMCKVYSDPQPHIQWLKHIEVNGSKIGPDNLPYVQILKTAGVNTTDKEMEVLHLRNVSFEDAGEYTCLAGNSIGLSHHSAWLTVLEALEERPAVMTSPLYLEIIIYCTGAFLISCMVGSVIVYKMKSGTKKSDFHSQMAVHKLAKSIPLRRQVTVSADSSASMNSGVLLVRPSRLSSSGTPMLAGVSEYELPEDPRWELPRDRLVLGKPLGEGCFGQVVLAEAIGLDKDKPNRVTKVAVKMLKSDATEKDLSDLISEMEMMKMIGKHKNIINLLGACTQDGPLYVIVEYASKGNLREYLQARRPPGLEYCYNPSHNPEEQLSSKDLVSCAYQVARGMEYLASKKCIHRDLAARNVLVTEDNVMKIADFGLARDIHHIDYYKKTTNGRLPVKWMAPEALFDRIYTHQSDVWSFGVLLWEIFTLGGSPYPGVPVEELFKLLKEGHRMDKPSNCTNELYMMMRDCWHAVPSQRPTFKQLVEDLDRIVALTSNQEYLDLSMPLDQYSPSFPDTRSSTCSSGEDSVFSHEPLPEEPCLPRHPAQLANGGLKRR
Sequence of panel of more than 300 wild-type and mutant kinases (313 kinase panel) (Homo sapiens, UniProt P27448) (P27448 whole entry, change not shown): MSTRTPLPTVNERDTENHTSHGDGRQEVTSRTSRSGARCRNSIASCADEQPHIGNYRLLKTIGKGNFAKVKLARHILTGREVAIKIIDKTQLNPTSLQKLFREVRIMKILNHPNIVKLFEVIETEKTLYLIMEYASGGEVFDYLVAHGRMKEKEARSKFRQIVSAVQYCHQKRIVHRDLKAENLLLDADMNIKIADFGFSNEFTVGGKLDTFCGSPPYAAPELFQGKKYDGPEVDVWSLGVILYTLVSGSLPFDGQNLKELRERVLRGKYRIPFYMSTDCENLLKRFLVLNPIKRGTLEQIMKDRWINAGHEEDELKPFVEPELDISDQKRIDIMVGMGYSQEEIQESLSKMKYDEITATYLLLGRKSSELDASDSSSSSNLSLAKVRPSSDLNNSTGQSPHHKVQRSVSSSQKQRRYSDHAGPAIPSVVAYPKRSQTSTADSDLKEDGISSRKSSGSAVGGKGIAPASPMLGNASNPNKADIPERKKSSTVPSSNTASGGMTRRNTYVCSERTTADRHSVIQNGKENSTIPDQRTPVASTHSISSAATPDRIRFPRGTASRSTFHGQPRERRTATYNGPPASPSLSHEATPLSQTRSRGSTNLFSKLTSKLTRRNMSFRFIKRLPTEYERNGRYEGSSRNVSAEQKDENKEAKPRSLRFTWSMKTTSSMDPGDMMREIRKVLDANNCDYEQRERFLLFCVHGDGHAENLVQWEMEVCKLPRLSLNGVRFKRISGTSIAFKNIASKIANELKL
Sequence of panel of more than 300 wild-type and mutant kinases (313 kinase panel) (Homo sapiens, UniProt Q16539) (Q16539 whole entry, change not shown): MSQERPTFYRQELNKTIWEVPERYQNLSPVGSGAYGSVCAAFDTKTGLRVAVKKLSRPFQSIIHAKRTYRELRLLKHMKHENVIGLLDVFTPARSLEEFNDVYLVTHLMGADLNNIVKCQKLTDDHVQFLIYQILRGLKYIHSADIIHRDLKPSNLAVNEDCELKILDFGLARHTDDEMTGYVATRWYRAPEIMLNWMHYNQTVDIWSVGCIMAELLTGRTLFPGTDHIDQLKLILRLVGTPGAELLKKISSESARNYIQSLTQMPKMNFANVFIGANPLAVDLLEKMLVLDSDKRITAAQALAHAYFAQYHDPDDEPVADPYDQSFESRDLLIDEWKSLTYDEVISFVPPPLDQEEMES
Sequence of panel of more than 300 wild-type and mutant kinases (313 kinase panel) (Homo sapiens, UniProt Q9BUB5) (Q9BUB5 whole entry, change not shown): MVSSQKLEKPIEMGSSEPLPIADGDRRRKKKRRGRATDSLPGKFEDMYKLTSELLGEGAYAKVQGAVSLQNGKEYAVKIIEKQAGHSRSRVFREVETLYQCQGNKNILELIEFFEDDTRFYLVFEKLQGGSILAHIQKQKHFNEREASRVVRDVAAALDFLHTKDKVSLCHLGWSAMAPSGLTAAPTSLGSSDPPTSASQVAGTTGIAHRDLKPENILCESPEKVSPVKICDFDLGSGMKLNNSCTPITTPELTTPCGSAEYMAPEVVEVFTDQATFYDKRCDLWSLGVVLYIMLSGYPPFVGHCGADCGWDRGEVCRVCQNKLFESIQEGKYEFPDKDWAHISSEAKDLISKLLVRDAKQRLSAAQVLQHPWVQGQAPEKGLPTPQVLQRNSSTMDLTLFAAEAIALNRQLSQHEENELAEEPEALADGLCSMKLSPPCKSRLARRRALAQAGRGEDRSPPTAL
Sequence of panel of more than 300 wild-type and mutant kinases (313 kinase panel) (Homo sapiens, UniProt Q9UQM7) (Q9UQM7 whole entry, change not shown): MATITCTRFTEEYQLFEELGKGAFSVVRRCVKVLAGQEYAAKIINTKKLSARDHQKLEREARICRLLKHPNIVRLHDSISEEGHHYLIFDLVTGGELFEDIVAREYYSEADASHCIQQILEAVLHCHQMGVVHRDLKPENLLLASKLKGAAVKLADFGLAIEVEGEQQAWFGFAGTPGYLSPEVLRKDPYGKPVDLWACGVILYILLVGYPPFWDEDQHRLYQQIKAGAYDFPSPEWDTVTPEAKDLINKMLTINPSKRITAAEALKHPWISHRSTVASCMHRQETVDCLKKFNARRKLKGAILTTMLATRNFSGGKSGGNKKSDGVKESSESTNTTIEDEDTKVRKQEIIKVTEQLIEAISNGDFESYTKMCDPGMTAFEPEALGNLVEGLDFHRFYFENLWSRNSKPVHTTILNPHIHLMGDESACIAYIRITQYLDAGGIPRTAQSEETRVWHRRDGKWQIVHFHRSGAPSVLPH

| SMILES | %-inhibition of MNK1 ([1]; kinase MNK1, 1 μM) | %-inhibition of SRPK2 ([2]; kinase SRPK2, 1 μM) | %-inhibition of FGFR1 ([3]; kinase FGFR1, compound at 1 μM) | %-inhibition of MARK3 ([4]; kinase MARK3, compound at 1 μM) | %-inhibition of MAP3K4 [5, 13] | %-inhibition of SRC ([6]; kinase SRC, 1 μM) | %-inhibition of MARK1 ([7]; kinase MARK1, compound at 1 μM) | %-inhibition, CaMK2α ([8]; kinase CaMK2α, 1 μM compound) | %-inhibition of MSSK1 ([9]; kinase MSSK1, 1 μM) | %-inhibition of p38α ([10]; kinase p38α, 1 μM) | %-inhibition, CaMK1δ ([11]; kinase CaMK1δ, 1 μM compound) | %-inhibition, BRSK2 ([12]; kinase BRSK2, 1 μM compound) | %-inhibition of MARK3 ([4]; 1 µM) | %-inhibition of MAP3K4 ([5]; 1 µM) | %-inhibition of MARK1 ([7]; 1 µM) | %-inhibition, CaMK2α ([8]; 1 µM) | %-inhibition of MNK1 ([1]; 1 µM) | %-inhibition of p38α ([10]; 1 µM) | other results |
| --- | --- | --- | --- | --- | --- | --- | --- | --- | --- | --- | --- | --- | --- | --- | --- | --- | --- | --- | --- |
| CO[C@H]1C[C@@H]2CC[C@@H](C)[C@@](O)(O2)C(=O)C(=O)N2CCCC[C@H]2C(=O)O[C@H]([C@H](C)C[C@@H]2CC[C@@H](OC(=O)C(C)(CO)CO)[C@H](OC)C2)CC(=O)[C@H](C)/C=C(\C)[C@@H](O)[C@@H](OC)C(=O)[C@H](C)C[C@H](C)/C=C/C=C/C=C/1C [temsirolimus] | -19% | -3.79% | -6.47% | -0.859% | 11% | 0.915% | -5% | -7% | -8% | -5% | -7% | -9% | – | – | – | – | – | – | – |
| CS(=O)(=O)CCNCc1ccc(-c2ccc3ncnc(Nc4ccc(OCc5cccc(F)c5)c(Cl)c4)c3c2)o1 [lapatinib] | 11% | 4.47% | -0.636% | – | – | 6% | – | – | -3% | -3% | -4% | 3.58% | 3.43% | 2% | 9% | -4.56% | – | – | – |
| COc1cc2nccc(Oc3ccc(NC(=O)C4(C(=O)Nc5ccc(F)cc5)CC4)cc3)c2cc1OC [cabozantinib] | 11% | 0.2% | 16% | -3% | -0.178% | 92% | -1% | -8% | 32% | 37% | -1.37% | 5.62% | – | – | – | – | – | – | – |
| Cc1cn(-c2cc(NC(=O)c3ccc(C)c(Nc4nccc(-c5cccnc5)n4)c3)cc(C(F)(F)F)c2)cn1 [nilotinib] | – | -0.605% | -29% | 11% | -18% | 23% | 12% | -5% | -17% | – | 3.56% | -0.27% | – | – | – | – | -1.26% | 92% | – |
| C#Cc1cccc(Nc2ncnc3cc(OCCOC)c(OCCOC)cc23)c1 [erlotinib] | – | – | – | – | – | – | – | – | – | – | – | – | 9% | -1.55% | 11% | -2% | 74% | -0.474% | %-inhibition of SRPK2 ([2]; 1 µM): 4.47%; %-inhibition of FGFR1 ([3]; 1 µM): 24%; %-inhibition of SRC ([6]; 1 µM): 46%; %-inhibition of MSSK1 ([9]; 1 µM): -5%; %-inhibition, CaMK1δ ([11]; 1 µM): -3.68%; %-inhibition, BRSK2 ([12]; 1 µM): 3.75% |
